The conditions of this data set: Capillary rise.

Each structure is given as a SMILES string. ± gives the expanded uncertainty stated by the source.

Broadly, the surface tension liquid-gas is the force per length acting along the surface. Take `CCCCCCCC[n+]1ccn(C)c1.[Cl-]` [1-methyl-3-octylimidazolium chloride]: the surface tension liquid-gas is, setting by setting: (298 K) 31.9 ± 1 mN/m; (303 K) 31.7 ± 1 mN/m; (308 K) 31.5 ± 1 mN/m; (313 K) 31.2 ± 1 mN/m; (318 K) 30.9 ± 1 mN/m; (323 K) 30.6 ± 1 mN/m. The surface tension liquid-gas is reported as 30.3 ± 1 mN/m (328 K); 30 ± 1 mN/m (333 K); 29.7 ± 1 mN/m (338 K); 29.5 ± 1 mN/m (343 K); 29.2 ± 1 mN/m (348 K); 28.9 ± 0.9 mN/m (353 K). Further, the surface tension liquid-gas came out at 28.7 ± 0.9 mN/m (358 K); 28.4 ± 0.9 mN/m (363 K); 28.2 ± 0.9 mN/m (368 K); 27.9 ± 0.9 mN/m (373 K); 27.6 ± 0.9 mN/m (378 K); 27.4 ± 0.9 mN/m (383 K). The surface tension liquid-gas runs as follows: (388 K) 27 ± 0.9 mN/m; (393 K) 26.7 ± 0.9 mN/m.
For the compound `CCCCn1cc[n+](C)c1.[I-]` [1-butyl-3-methylimidazolium iodide], the surface tension liquid-gas (298 K) is 53.3 ± 1.5 mN/m; the surface tension liquid-gas (303 K) turned out to be 52.9 ± 1.5 mN/m; the surface tension liquid-gas (308 K) is 52.5 ± 1.5 mN/m; the surface tension liquid-gas (313 K) turned out to be 52.1 ± 1.5 mN/m; the surface tension liquid-gas (318 K) was 51.5 ± 1.4 mN/m; the surface tension liquid-gas (323 K) came out at 51.1 ± 1.4 mN/m. Besides, the surface tension liquid-gas is, setting by setting: (328 K) 50.7 ± 1.4 mN/m; (333 K) 50.3 ± 1.4 mN/m; (338 K) 49.9 ± 1.4 mN/m; (343 K) 49.4 ± 1.4 mN/m; (348 K) 49 ± 1.4 mN/m; (353 K) 48.6 ± 1.4 mN/m. For the same compound, the surface tension liquid-gas is 48.2 ± 1.4 mN/m (358 K); 47.8 ± 1.4 mN/m (363 K); 47.4 ± 1.3 mN/m (368 K); 47.1 ± 1.3 mN/m (373 K); 46.7 ± 1.3 mN/m (378 K); 46.3 ± 1.3 mN/m (383 K). Further, the surface tension liquid-gas by setting is: (388 K) 46 ± 1.3 mN/m; (393 K) 45.6 ± 1.3 mN/m.
In the case of `CCCCCCCC[n+]1ccn(C)c1.F[B-](F)(F)F` [1-methyl-3-octylimidazolium tetrafluoroborate], the surface tension liquid-gas is, setting by setting: (298 K) 30.7 ± 1 mN/m; (303 K) 30.4 ± 1 mN/m; (308 K) 30.1 ± 1 mN/m; (313 K) 29.9 ± 1 mN/m; (318 K) 29.6 ± 1 mN/m; (323 K) 29.4 ± 1 mN/m. In addition, the surface tension liquid-gas runs as follows: (328 K) 29.2 ± 1 mN/m; (333 K) 28.9 ± 0.9 mN/m; (338 K) 28.7 ± 0.9 mN/m; (343 K) 28.4 ± 0.9 mN/m; (348 K) 28.2 ± 0.9 mN/m; (353 K) 27.9 ± 0.9 mN/m. In addition, the surface tension liquid-gas runs as follows: (358 K) 27.7 ± 0.9 mN/m; (363 K) 27.4 ± 0.9 mN/m; (368 K) 27.2 ± 0.9 mN/m; (373 K) 27 ± 0.9 mN/m; (378 K) 26.7 ± 0.9 mN/m; (383 K) 26.5 ± 0.9 mN/m. In addition, the surface tension liquid-gas reads like this: (388 K) 26.3 ± 0.9 mN/m; (393 K) 26 ± 0.9 mN/m.

For the origin of these results see the NIST ThermoML archive (doi:10.1016/j.fluid.2007.10.004).
